Laboratory results from article PMC11887451, “Leveraging Immunogenic Cell Death to Enhance the Immune Response against Malignant Pleural Mesothelioma Tumors” (Journal of the American Chemical Society, 2025).
Entries after “also recorded” stand apart in the source; their conditions may differ.

Assays:
[1] = system: M0-differentiated THP-1 cells; experiment: MTT-based viability assay on M0-differentiated THP-1 cells, 72 h; assay type: cell-based, human; conditions: 72-h exposure, compared with AB12 cells
Protocol: incubated for an additional 50 min. Subsequently, the medium was aspirated, and the purple formazan crystals formed in viable cells were dissolved in DMSO (100 μL/well). Optical densities were measured at 570 nm using a BioTek Synergy H1 microplate and MultiskanTM SkyHigh plate readers. The quantity of viable cells was expressed in terms of treated/control (T/C) values in comparison to untreated control cells, and 50% inhibitory concentrations (IC 50) were calculated from concentration-effect curves by interpolation. An evaluation was based on means from at least three independent experiments, each comprising three replicat es per […]
For macrophage analyses, the acute monocytic leukemia -derived THP-1 cell line (ATCC) was used as a model. 1 × 104 THP-1 cells were seeded per well in 96-well plates in RPMI-1640 with 10% FCS and treated for 24 h with 75 nM phorbol 12-myristate 13-acetate (PMA, Sigma-Aldrich) to induce M0 macrophage differentiation. After the differentiation period, PMA was replaced by fresh culture medium to recover for 2h. Afterwards increasing concentrations of 1G, 5A, 5B and 5G were added for a 72-h continuous drug exposure assay. In parallel, the murine mesothelioma cell line AB12 was seeded into 96 -well plates at 2.5 × 10^3 cells/well and were allowed to attach for 24 h. Gold compounds were added to the cells as described for the THP-1 model above. After the incubation period of 72 h, cell viability was determined by an MTT-based assay (EU4U, Biomedica) following the instructions of the manufacturer. DMSO had not impact on the cell viability at the concentrations used. […]

HMGB1 in AB12 cells = experiment: HMGB1 detection, flow cytometry; assay type: cell-based, mouse; conditions: AB12, 5 × IC50 (72 h), 240 min
Protocol: AB12 cells were seeded into Cellstar 6-well plates (Greiner Bio-One) at a density of 5 × 10^5 cells per well (2 ml per well). The cells were allowed to resume exponential growth for 16 h. […] After the treatment, the supernatant was collected in 2 mL microtubes. The wells were washed with 1 ml of PBS, trypsinized with 300 μL of trypsin at 37 °C for 5 min and combined with the corresponding supernatant. The cell suspension was then centrifuged (300  g, 10 min), washed with PBS (2  1 ml). […] RT, washed once with 1 mL PBS and centrifuged (500  g, 10 min). Next, cells were incubated with HMGB1 antibody (Catalogue number: 3935, Cell Signaling Technology) at 4 °C overnight (1:500 dilution in PBS) and washed with 1 ml of PBS (500  g, 10 min). […] The cells were excited by the 488 nm laser, and fluorescence S24 page 25: emission was detected at 525/40 nm for FITC (CRT). The resulting dot blots were acquired from 10,000 events and quantified using Flowjo software (version 10.8.0, BD Biosciences, San Jose, CA, USA).

[2] = system: calreticulin (CRT) in AB12 cells; experiment: CRT detection, flow cytometry; assay type: cell-based, mouse; conditions: AB12, 5 × IC50 (72 h), 120 min
Protocol: page 23: concentrations for 100 min at 37 °C. After the treatment, the supernatant was collected in 2 mL microtubes, centrifuged (300 × g, 5 min) and the media was removed. The adherent cells were then trypsinized with 500 μL of trypsin at 37 °C for 5 min. Next, 1 mL of medium was added to neutralize trypsin and the resulting cell suspension was combined with the supernatant. The wells were washed with 200 μL of PBS, which was also combined with the supernatant. The combined solutions were centrifuged (300 × g, 5 min), and the resulting pellets were washed with PBS (2 × 1 mL) and resuspended in 200 μL of Annexin V binding buffer. […] Cell death was evaluated by flow cytometry using a CytoFLEX Flow Cytometer equipped with a 488 nm laser and a 638 nm laser (Beckman Coulter, Brea, CA, USA). The cells were excited by the 488 nm laser, and fluorescence emissions were detected at 525/40 nm for FITC (Annexin V) and at 610/20 nm for ECD (PI). […] The percentage of necrosis was determined by calculating the sum of cells in Q1 and Q2. […] Next, cells were incubated with CRT antibody conjugated with AlexaFluor S23 page 24: 488 (62304S, Cell Signaling Technology) at 4 °C overnight, washed twice with PBS, reconstituted in 500 µL of PBS and analyzed by flow cytometry using a CytoFLEX Flow Cytometer equipped with a 488 nm laser and a 638 nm laser (Beckman Coulter, Brea, CA, USA). […]

[3] = system: panel of seven MPM cell lines; experiment: MTT cytotoxicity assay, 72 h, whole panel (summary ranges); assay type: cell-based; conditions: read-out: cytotoxicity range across the cell line panel
From the text: Human malignant mesothelioma cancer cell lines JU77 and LO68 were obtained from Cell Bank Australia (Children's Medical Research Institute, Westmead, Australia). Mouse malignant mesothelioma cancer cell line AB12, human nonmalignant mesothelioma cancer cell line Met5A (mesothelial cells), mouse macrophage cell line J774 and human monocytic cell line THP-1 were obtained from American Type Culture Collection (ATCC) (Rockville, MD, USA). Human malignant mesothelioma cell lines VMC23 (epithelial), Meso82 (sarcomatous), Meso92 (biphasic), were kindly provided by Prof. Walter Berger (Medical University of Vienna). All cells except for J774 were cultured in RPMI and J774 cells were cultured in DMEM. Both types of media were supplemented with 10% FBS and 1% penicillin-streptomycin (10,000 U/mL). Cells were grown in tissue culture flasks (75 cm2 and 25 cm2, SPL Life Sciences Co., Ltd., Korea). All cell lines were grown at 37 °C in a humidified atmosphere of 95% air and 5% CO 2 and passaged when they reached 80–90% confluency. All Au stock solutions were prepared in 1% DMSO in the respected medium, ensuring that cell viability was not inhibited. […]
The cytotoxicity of compounds was determined using an MTT colorimetric test. […]
incubated for an additional 50 min. […] Optical densities were measured at 570 nm using a BioTek Synergy H1 microplate and MultiskanTM SkyHigh plate readers. […]

Row | SMILES | sensitivity of THP-1-derived macrophages [1] | HMGB1 expression (in words) (HMGB1 in AB12 cells) | CRT expression (in words) [2] | IC50 [3] [nM]
1 | F[P-](F)(F)(F)(F)F.c1cc[c]2c(c1)Nc1cccc[n+]1[Au-]21[S]C(=[N+]2CCCCCC2)[S]1 (stereo not shown) [5G] | highly sensitive; also recorded: increased sensitivity in comparison to the malignant mesothelioma cells | – | – | –
2 | Nc1nc2[nH]cc(CCc3ccc(C(=O)N[C@@H](CCC(=O)O)C(=O)O)cc3)c2c(=O)[nH]1 [Pemetrexed, pemetrexed, reference compound] | – | significant increase in HMGB1 expression | no changes in CRT expression | 23 to 300
